Reference: patent publication US20260034119A1, “5-METHOXY-N,N-[…][…], THEIR […], AND METHODS FOR TREATMENT OF NEUROLOGICAL, […], AND SUBSTANCE USE DISORDERS” (priority 2023, published 2026)

Experiments:
mice = assay: Open field locomotor activity; format: in vivo, mouse
[1] = Mouse brain tissue binding; format: in vitro ADME; settings: for fraction unbound: mouse, brain tissue
OCT2 = biological target: T1, OCT2 (Homo sapiens, UniProt O15244); assay: OCT2 uptake inhibition; format: cell-based; settings: compared with 5-HT1A
T1 construct: expressed in transfected cells; host or cells: Flp-In T-Rex cell line (ThermoFisher), tetracycline-induced
T1 sequence (O15244 1-555): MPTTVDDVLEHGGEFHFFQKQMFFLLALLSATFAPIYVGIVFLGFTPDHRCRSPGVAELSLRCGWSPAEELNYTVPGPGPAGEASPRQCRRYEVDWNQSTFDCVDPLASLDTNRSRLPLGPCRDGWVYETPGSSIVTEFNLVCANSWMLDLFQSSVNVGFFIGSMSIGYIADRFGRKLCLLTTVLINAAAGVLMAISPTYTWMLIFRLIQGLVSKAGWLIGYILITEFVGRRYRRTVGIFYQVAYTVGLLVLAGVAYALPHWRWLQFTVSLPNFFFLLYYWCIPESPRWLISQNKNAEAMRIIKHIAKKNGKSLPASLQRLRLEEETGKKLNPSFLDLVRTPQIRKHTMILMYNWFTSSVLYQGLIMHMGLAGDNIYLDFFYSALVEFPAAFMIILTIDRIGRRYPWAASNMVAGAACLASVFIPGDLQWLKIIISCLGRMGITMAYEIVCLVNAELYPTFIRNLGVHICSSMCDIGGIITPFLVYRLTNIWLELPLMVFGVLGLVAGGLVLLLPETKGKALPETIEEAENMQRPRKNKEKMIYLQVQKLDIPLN
Procedure: Inducible cell lines stably expressing OCT1, OCT2, or PMAT were generated using the Flp-In T-Rex cell line (ThermoFisher) according to manufacturer recommendations. Cells were maintained in DMEM supplemented with 10% FBS, 100 μg/ml hygromycin B (GoldBio), and 10 μg/ml blasticidin (GoldBio). To measure uptake inhibition, cells were seeded into poly-L-lysine coated clear-bottom 384-well plates at a density of 25,000 cells per well in DMEM containing 10% FBS and 2 μg/ml of tetracycline (Sigma) to induce transporter expression. […] Cells were incubated with drug for 30 min at 37° C. Fluorescent substrate was then added to the cells. […] Cells were incubated with respective substrates for an hour at 37° C. OCT2 cells were read directly in a Victor NIVO plate reader using 495 nm excitation and 580 emission filter for 0.1 s. OCT1 and PMAT cells were washed in HBSS supplemented with 20 mM HEPES pH 7.4 before reading in a Victor NIVO plate reader using 435 nm excitation and 480 nm emission filter for 0.1 s.

[2] = Mouse plasma protein binding; format: in vitro ADME; settings: for fraction unbound: mouse, plasma
5-HT1A A365N = biological target: T2, 5-HT1A A365N (Homo sapiens, UniProt P08908, A365N); assay: Gi1 BRET at mutant 5-HT1A A365N; format: cell-based; settings: Gi1 BRET, 5-HT1A A365N^6.55
T2 construct: expressed in transfected cells; host or cells: HEK293-T
T2 sequence (P08908 1-422 A365N): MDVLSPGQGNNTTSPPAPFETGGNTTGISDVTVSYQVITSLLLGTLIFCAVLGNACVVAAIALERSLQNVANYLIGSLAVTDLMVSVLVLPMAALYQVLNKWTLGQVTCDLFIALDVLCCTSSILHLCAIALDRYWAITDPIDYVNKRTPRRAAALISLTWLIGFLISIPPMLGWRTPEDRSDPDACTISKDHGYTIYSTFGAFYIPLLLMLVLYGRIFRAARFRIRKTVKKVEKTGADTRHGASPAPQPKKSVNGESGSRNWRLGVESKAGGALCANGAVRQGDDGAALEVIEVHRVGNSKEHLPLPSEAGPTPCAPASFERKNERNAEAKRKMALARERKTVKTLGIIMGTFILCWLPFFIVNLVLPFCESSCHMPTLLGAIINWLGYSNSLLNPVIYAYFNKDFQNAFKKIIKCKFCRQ

[3] = Human plasma protein binding; format: in vitro ADME; settings: for fraction unbound: human, plasma
[4] = read-out: % Bound Mean (converted)
[5] = replicate R1, read-out: % Bound R1 (converted)
[6] = replicate R2, read-out: % Bound R2 (converted)

COc1ccc2[nH]cc(CCN3CCCC3)c2c1F [4-F, 5-MeO-PyrT, 4-Fluoro, 5-methoxypyrrolidinyl-tryptamine]
lowest dose producing suppression of locomotion (mice; mice, s.c.): 0.03 mg/kg | sedative effects after WAY-100635 pretreatment (mice; open field, WAY-100635 1 mg/kg s.c. 15 min prior, compound 1 mg/kg s.c.): negates the sedative effects | brain tissue binding [1]: 82.5% | recovery [1]: 88% | % Compound remaining at 4 h ([1]; 4 h): 96% | fraction unbound [1, 4]: 0.175 | fraction unbound ([1]; read-out: % Unbound): 0.175 | fraction unbound ([1]; read-out: fu): 0.175 | fraction unbound [1, 5]: 0.157 | fraction unbound [1, 6]: 0.193 | activity at other neurotransmitter transporters (OCT2) (OCT2): substantially lower activity | recovery [2]: 84.7% | % Compound remaining at 4 h ([2]; 4 h): 105.6% | fraction unbound [2, 4]: 0.626 | fraction unbound ([2]; read-out: % Unbound): 0.626 | fraction unbound ([2]; read-out: fu): 0.626 | fraction unbound [2, 5]: 0.68 | fraction unbound [2, 6]: 0.573 | pEC50 (5-HT1A A365N): (8.29, | EC50 (5-HT1A A365N; read-out: EC50): 5.08 nM | recovery [3]: 81.8% | % Compound remaining at 4 h ([3]; 4 h): 97.9% | fraction unbound [3, 4]: 0.74 | fraction unbound ([3]; read-out: % Unbound): 0.74 | fraction unbound ([3]; read-out: fu): 0.74 | fraction unbound [3, 5]: 0.778 | fraction unbound [3, 6]: 0.702
